Laboratory results as given in ChEMBL document CHEMBL5726212, “Substituted pyridines as inhibitors of human immunodeficiency virus replication” (2019).
pEC50: −log10 of the molar value.

Assay: Inhibition of HIV replication: A recombinant NL-RLuc proviral clone was constructed in which a section of the nef gene from NL4-3 was replaced with the Renilla Luciferase gene. This virus is fully infectious and can undergo multiple cycles of replication in cell culture. In addition, the luciferous reporter provides a simple and easy method for quantitating the extent of virus growth and consequently, the antiviral activity of test compounds. The plasmid pNLRLuc contains the proviral NL-Rluc DNA cloned into pUC18 at the PvuII site. The NL-RLuc virus was prepared by transfection of 293T cells with the plasmid pNLRLuc. Transfections were performed using the LipofectAMINE PLUS kit from Invitrogen (Carlsbad, Calif.) according to the manufacturer and the virus generated was titered in MT-2 cells. For susceptibility analyses, the titrated virus was used to infect MT-2 cells in the presence of compound, and after 5 days of incubation, cells were processed and quantitated for virus growth by the amount of expressed luciferase. Assay media was RPMI 1640 supplemented with 10% heat inactivated fetal bovine serum (FBS), 100 units/ml penicillin G/100 units/ml streptomycin, 10 mM HEPES buffer pH 7.55 and 2 mM L-glutamine. The results from at least 2 experiments were used to calculate the EC50 values. Luciferase was quantitated using the Dual Luciferase kit from Promega (Madison, Wis.). Susceptibility of viruses to compounds was determined by incubation in the presence of serial dilutions of the compound. The 50% effective concentration (EC50) was calculated by using the exponential form of the median effect equation where (Fa)=1/[1+(ED50/drug conc.)m] (Johnson V A, Byington R T. Infectivity Assay. In Techniques in HIV Research. ed. Aldovini A, Walker B D. 71-76. New York: Stockton Press.1990).
Format: cell-based

Row | SMILES | pEC50 | pEC50 (HEK-293T)
1 | COc1cc(F)c(CN2CCc3cc(-c4c(C)nc(C)c([C@H](OC(C)(C)C)C(=O)O)c4N4CCC(C)(C)CC4)ccc3C2)c(F)c1 | > 7.00 | > 7.00
2 | Cc1ccc(CN2CCc3cc(-c4c(C)nc(C)c([C@H](OC(C)(C)C)C(=O)O)c4N4CCC(C)(C)CC4)ccc3C2)cc1C | > 7.00 | > 7.00
3 | COc1cc(F)cc(F)c1CN1CCc2cc(-c3c(C)nc(C)c([C@H](OC(C)(C)C)C(=O)O)c3N3CCC(C)(C)CC3)ccc2C1 | > 7.00 | > 7.00
